Measured values: patent publication US9938258B2 (Karyopharm Therapeutics Inc., priority 2012, dated 2018)
Where two headings read alike, the source gives them in different places.

Legend:
[1] = system: Z138 cells; assay: MTT cell proliferation assay, Z138; type: cell-based; details: eight concentrations 1 nM to 30 μM, incubation approximately 64-72 hours, read-out: MTT Assay IC50, Z138
Description: (§1) The MTT cell proliferation assay was used to study the cytotoxic properties of the compounds. The assay was performed according to the method described by Roche Molecular Biochemicals, with minor modifications. The assay is based on the cleavage of the tetrazolium salt, MTT, in the presence of an electron-coupling reagent. The water-insoluble formazan salt produced must be solubilized in an additional step. Cells grown in a 96-well tissue culture plate were incubated with the MTT solution for approximately 4 hours. After this incubation period, a water-insoluble formazan dye formed. After solubilization, the formazan dye was quantitated using a scanning multi-well spectrophotometer (ELISA reader). […] The cells were seeded at 5,000-10,000 cells in each well of 96-well plate in 100 μL of fresh culture medium and were allowed to attach overnight. The stock solutions of the compounds were diluted in 100 μL cell culture medium to obtain eight concentrations of each test compound, ranging from 1 nM to 30 μM. […] All optical densities were measured at 490 nm using a Vmax Kinetic Microplate Reader (Molecular Devices). In most cases, the assay was performed in duplicate and the results were presented as a mean percent inhibition to the negative control±SE. The following formula was used to calculate the percent of inhibition: Inhibition (%)=(1-(ODo/OD)) ×100.
(§2) The compounds were tested against MS751, Z138 and 3T3 cells. The MS751 cell line is derived from a metastasis to lymph node of human cervix from a patient diagnosed with squameous cell carcinoma of the cervix. The Z138 cell line is a mature B-cell acute lymphoblastic leukemia cell line derived from a patient with chronic lumphocytic leukemia. 3T3 cells are standard fibroblast cells; they were originally isolated from Swiss mouse embryo tissue.

[2] = system: 3T3 cells; assay: MTT cell proliferation assay, 3T3; type: cell-based, mouse; details: eight concentrations 1 nM to 30 μM, incubation approximately 64-72 hours, read-out: MTT Assay IC50, 3T3
Description: as §1, §2

[3] = system: MS751 cells; assay: MTT cell proliferation assay, MS751; type: cell-based, human; details: eight concentrations 1 nM to 30 μM, incubation approximately 64-72 hours, read-out: MTT Assay IC50, MS751
Description: as §1, §2

[4] = Homo sapiens, Z-138, Z138 cells
[5] = Mus musculus, NIH3T3, 3T3 cells
[6] = Homo sapiens, MS751, MS751 cells

CC(=O)c1ccc(-c2cc(Cl)c3c(c2)CC(CNC(=O)/C=C/C2C(Cl)=NC4=CC=CCN42)O3)s1 (stereo not drawn) [Compound 120, (E)-N-((5-(5-Acetylthiophen-2-yl)-7-chloro-2,3-dihydrobenzofuran-2-yl)methyl)-3-(2-chloro-3,5-dihydroimidazo[1,2-a]pyridin-3-yl)acrylamide]
IC50 [1, 4]: 5 to 30 µM
IC50 [2, 5]: 5 to 30 µM
IC50 [3, 6]: 5 to 30 µM

CC(=O)c1ccc(-c2cc(Cl)c3c(c2)CC(CNC(=O)/C=C/c2cccnc2)O3)s1 (stereo not drawn) [Compound 122, (E)-N-((5-(5-acetylthiophen-2-yl)-7-chloro-2,3-dihydrobenzofuran-2-yl)methyl)-3-(pyridin-3-yl)acrylamide]
IC50 ([1]; Z138 cells): 0.1 to 5 µM
IC50 ([2]; 3T3 cells): 0.1 to 5 µM
IC50 ([3]; MS751 cells): 0.1 to 5 µM

CC(=O)c1ccc(-c2cc(Cl)c3c(c2)CC(CN(C)C(=O)/C=C/c2cccnc2)O3)s1 (stereo not drawn) [Compound 125, (E)-N-((5-(5-acetylthiophen-2-yl)-7-chloro-2,3-dihydrobenzofuran-2-yl)methyl)-N-methyl-3-(pyridin-3-yl)acrylamide]
IC50 [1, 4]: 5 to 30 µM
IC50 [2, 5]: 5 to 30 µM
IC50 [3, 6]: 5 to 30 µM

CCOC(=O)c1ccc(-c2cc(Cl)c3c(c2)CC(CNC(=O)/C=C/c2cccnc2)O3)cc1 (stereo not drawn) [Compound 128, (E)-ethyl 4-(7-chloro-2-((3-(pyridin-3-yl)acrylamido)methyl)-2,3-dihydrobenzofuran-5-yl)benzoate]
IC50 [1, 4]: < 0.1 µM
IC50 [2, 5]: 0.1 to 5 µM
IC50 [3, 6]: 0.1 to 5 µM

O=C(/C=C/c1cccnc1)NCC1Cc2cc(-c3ccc(C(=O)O)cc3)cc(Cl)c2O1 (stereo not drawn) [Compound 129, (E)-4-(7-chloro-2-((3-(pyridin-3-yl)acrylamido)methyl)-2,3-dihydrobenzofuran-5-yl)benzoic acid]
IC50 [1, 4]: 5 to 30 µM
IC50 [2, 5]: 5 to 30 µM
IC50 [3, 6]: 5 to 30 µM

CC(=O)c1ccc(-c2cc(C)c3c(c2)CC(CNC(=O)/C=C/c2cccnc2)O3)s1 (stereo not drawn) [Compound 138, (E)-N-((5-(5-acetylthiophen-2-yl)-7-methyl-2,3-dihydrobenzofuran-2-yl)methyl)-3-(pyridin-3-yl)acrylamide]
IC50 [1, 4]: < 0.1 µM
IC50 [2, 5]: 0.1 to 5 µM
IC50 [3, 6]: < 0.1 µM

CC(=O)c1ccc(-c2cc(Cl)c3c(c2)CC(CNC(=O)/C=C/c2ccc(C)nc2)O3)s1 (stereo not drawn) [Compound 146, (E)-N-((5-(5-acetylthiophen-2-yl)-7-chloro-2,3-dihydrobenzofuran-2-yl)methyl)-3-(6-methylpyridin-3-yl)acrylamide]
IC50 [1, 4]: > 30 µM
IC50 [2, 5]: > 30 µM
IC50 [3, 6]: 5 to 30 µM

CC(=O)c1ccc(-c2cc(Cl)c3c(c2)CC(CNC(=O)/C=C/c2c(C)noc2C)O3)s1 (stereo not drawn) [Compound 147, (E)-N-((5-(5-acetylthiophen-2-yl)-7-chloro-2,3-dihydrobenzofuran-2-yl)methyl)-3-(3,5-dimethylisoxazol-4-yl)acrylamide]
IC50 [1, 4]: 0.1 to 5 µM
IC50 [2, 5]: > 30 µM
IC50 [3, 6]: 0.1 to 5 µM

CC(=O)c1ccc(-c2cc(Cl)c3c(c2)CC(CNC(=O)/C=C/c2cnc(C)s2)O3)s1 (stereo not drawn) [Compound 148, (E)-N-((5-(5-acetylthiophen-2-yl)-7-chloro-2,3-dihydrobenzofuran-2-yl)methyl)-3-(2-methylthiazol-5-yl)acrylamide]
IC50 [1, 4]: > 30 µM
IC50 [2, 5]: > 30 µM
IC50 [3, 6]: 5 to 30 µM

CC(=O)c1ccc(-c2cc(Cl)c3c(c2)CC(CNC(=O)/C=C/c2cnn(C)c2)O3)s1 (stereo not drawn) [Compound 149, (E)-N-((5-(5-acetylthiophen-2-yl)-7-chloro-2,3-dihydrobenzofuran-2-yl)methyl)-3-(1-methyl-1H-pyrazol-4-yl)acrylamide]
IC50 [1, 4]: > 30 µM
IC50 [2, 5]: > 30 µM
IC50 [3, 6]: > 30 µM

CC(=O)c1ccc(-c2cc(Cl)c3c(c2)CC(CNC(=O)/C=C/c2ccc(C)o2)O3)s1 (stereo not drawn) [Compound 150, (E)-N-((5-(5-acetylthiophen-2-yl)-7-chloro-2,3-dihydrobenzofuran-2-yl)methyl)-3-(5-methylfuran-2-yl)acrylamide]
IC50 [1, 4]: > 30 µM
IC50 [2, 5]: > 30 µM
IC50 [3, 6]: > 30 µM

CC(=O)c1ccc(-c2cc(Cl)c3c(c2)CC(CNC(=O)/C=C/c2cnc4ccccc4n2)O3)s1 (stereo not drawn) [Compound 151, (E)-N-((5-(5-acetylthiophen-2-yl)-7-chloro-2,3-dihydrobenzofuran-2-yl)methyl)-3-(quinoxalin-2-yl)acrylamide]
IC50 [1, 4]: > 30 µM
IC50 [2, 5]: > 30 µM
IC50 [3, 6]: > 30 µM

CC(=O)c1ccc(-c2cc(Cl)c3c(c2)CC(CNC(=O)/C=C/c2sccc2C)O3)s1 (stereo not drawn) [Compound 152, (E)-N-((5-(5-acetylthiophen-2-yl)-7-chloro-2,3-dihydrobenzofuran-2-yl)methyl)-3-(3-methylthiophen-2-yl)acrylamide]
IC50 [1, 4]: > 30 µM
IC50 [2, 5]: > 30 µM
IC50 [3, 6]: > 30 µM

CC(=O)c1ccc(-c2cc(Cl)c3c(c2)CC(CNC(=O)/C=C/c2cc[nH]c2)O3)s1 (stereo not drawn) [Compound 153, (E)-N-((5-(5-acetylthiophen-2-yl)-7-chloro-2,3-dihydrobenzofuran-2-yl)methyl)-3-(1H-pyrrol-3-yl)acrylamide]
IC50 [1, 4]: > 30 µM
IC50 [2, 5]: > 30 µM
IC50 [3, 6]: > 30 µM

CC(=O)c1ccc(-c2cc(Cl)c3c(c2)CC(CNC(=O)/C=C/c2c(C)nn(CC(C)C)c2Cl)O3)s1 (stereo not drawn) [Compound 154, (E)-N-((5-(5-acetylthiophen-2-yl)-7-chloro-2,3-dihydrobenzofuran-2-yl)methyl)-3-(5-chloro-1-isobutyl-3-methyl-1H-pyrazol-4-yl)acrylamide]
IC50 [1, 4]: > 30 µM
IC50 [2, 5]: > 30 µM
IC50 [3, 6]: > 30 µM

CCn1cc(/C=C/C(=O)NCC2Cc3cc(-c4ccc(C(C)=O)s4)cc(Cl)c3O2)cn1 (stereo not drawn) [Compound 155, (E)-N-((5-(5-acetylthiophen-2-yl)-7-chloro-2,3-dihydrobenzofuran-2-yl)methyl)-3-(1-ethyl-1H-pyrazol-4-yl)acrylamide]
IC50 [1, 4]: > 30 µM
IC50 [2, 5]: > 30 µM
IC50 [3, 6]: > 30 µM

CC(=O)c1ccc(-c2cc(Cl)c3c(c2)CC(CNC(=O)/C=C/c2cn(C)nc2C)O3)s1 (stereo not drawn) [Compound 156, (E)-N-((5-(5-acetylthiophen-2-yl)-7-chloro-2,3-dihydrobenzofuran-2-yl)methyl)-3-(1,3-dimethyl-1H-pyrazol-4-yl)acrylamide]
IC50 [1, 4]: > 30 µM
IC50 [2, 5]: > 30 µM
IC50 [3, 6]: > 30 µM

CC(=O)c1ccc(-c2cc(Cl)c3c(c2)CC(CNC(=O)/C=C/c2cnn(C)c2C)O3)s1 (stereo not drawn) [Compound 157, (E)-N-((5-(5-acetylthiophen-2-yl)-7-chloro-2,3-dihydrobenzofuran-2-yl)methyl)-3-(1,5-dimethyl-1H-pyrazol-4-yl)acrylamide]
IC50 [1, 4]: > 30 µM
IC50 [2, 5]: > 30 µM
IC50 [3, 6]: > 30 µM

CC(=O)c1ccc(-c2cc(Cl)c3c(c2)CC(CNC(=O)/C=C/c2csc(C)n2)O3)s1 (stereo not drawn) [Compound 159, (E)-N-((5-(5-acetylthiophen-2-yl)-7-chloro-2,3-dihydrobenzofuran-2-yl)methyl)-3-(2-methylthiazol-4-yl)acrylamide]
IC50 [1, 4]: > 30 µM
IC50 [2, 5]: > 30 µM
IC50 [3, 6]: > 30 µM

CC(=O)c1ccc(-c2cc(Cl)c3c(c2)CC(CNC(=O)/C=C/c2c(C)nn(C)c2Cl)O3)s1 (stereo not drawn) [Compound 160, (E)-N-((5-(5-acetylthiophen-2-yl)-7-chloro-2,3-dihydrobenzofuran-2-yl)methyl)-3-(5-chloro-1,3-dimethyl-1H-pyrazol-4-yl)acrylamide]
IC50 [1, 4]: > 30 µM
IC50 [2, 5]: > 30 µM
IC50 [3, 6]: > 30 µM

CC(=O)c1ccc(-c2cc(Cl)c3c(c2)CC(CNC(=O)/C=C/c2c(C)nc4sc(C)cn24)O3)s1 (stereo not drawn) [Compound 161, (E)-N-((5-(5-acetylthiophen-2-yl)-7-chloro-2,3-dihydrobenzofuran-2-yl)methyl)-3-(2,6-dimethylimidazo[2,1-b]thiazol-5-yl)acrylamide]
IC50 [1, 4]: > 30 µM
IC50 [2, 5]: > 30 µM
IC50 [3, 6]: > 30 µM

CC(OC(=O)CCCC[C@@H]1SC[C@@H]2NC(=O)N[C@@H]21)c1ccc(-c2cc(Cl)c3c(c2)CC(CNC(=O)/C=C/c2cccnc2)O3)s1 (stereo partly drawn) [Compound 162, 1-(5-(7-chloro-2-(((E)-3-(pyridin-3-yl)acrylamido)methyl)-2,3-dihydrobenzofuran-5-yl)thiophen-2-yl)ethyl 5-((3aS,4S,6aR)-2-oxohexahydro-1H-thieno[3,4-d]imidazol-4-yl)pentanoate]
IC50 [1, 4]: < 0.1 µM
IC50 [2, 5]: 0.1 to 5 µM
IC50 [3, 6]: < 0.1 µM

CC(=O)c1ccc(-c2cc(Cl)c3c(c2)CC(CNC(=O)/C=C/c2sccc2Cl)O3)s1 (stereo not drawn) [Compound 163, (E)-N-((5-(5-acetylthiophen-2-yl)-7-chloro-2,3-dihydrobenzofuran-2-yl)methyl)-3-(3-chlorothiophen-2-yl)acrylamide]
IC50 [1, 4]: > 30 µM
IC50 [2, 5]: > 30 µM
IC50 [3, 6]: > 30 µM
